Bounds are passed on as bounds.

The target in experiment [1] is T1, human PI3Kα protein (Homo sapiens, UniProt P42336).
T1 construct: purchased Carna Biosciences, Inc; host or cells: baculovirus expression system
Nature of the experiment: PI3Kα enzyme assay (ADP-Glo). Format: biochemical. The settings on record: read-out: PI3Kα enzyme inhibitory activity. In a few lines: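 Biotinylated human PI3Kα (baculovirus-expressed, 4.5 nmol/L) pre-incubated 15 min with compound in Tris-HCl pH 7.5, MgCl2, BSA; reaction 60 min at 25° C with 50 μmol/L PIP2 and 100 μmol/L ATP final. ADP quantified by ADP-Glo luminescence; IC50 calculated.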

For experiment [2], the target named is T2, GST fusion human ERK2 protein (Homo sapiens, UniProt P28482).
T2 construct: purchased Carna Biosciences, Inc; host or cells: E. coli expression system
T2 sequence (P28482 whole entry, the tested form may be a part): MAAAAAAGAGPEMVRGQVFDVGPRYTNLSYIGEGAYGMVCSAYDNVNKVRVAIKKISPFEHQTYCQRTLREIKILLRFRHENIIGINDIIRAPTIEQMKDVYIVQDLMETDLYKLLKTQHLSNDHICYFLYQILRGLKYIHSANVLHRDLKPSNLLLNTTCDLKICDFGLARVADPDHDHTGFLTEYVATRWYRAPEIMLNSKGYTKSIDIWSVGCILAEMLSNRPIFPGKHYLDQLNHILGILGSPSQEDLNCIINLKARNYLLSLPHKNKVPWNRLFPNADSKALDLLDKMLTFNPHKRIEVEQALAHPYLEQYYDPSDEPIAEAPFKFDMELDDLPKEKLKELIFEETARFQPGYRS
Nature of the experiment: ERK2 enzyme assay (2). The note with it: ERK2 enzyme assay (2); read-out: ERK2 enzyme inhibitory activity (2). The experiment is classed as biochemical. In a few lines: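 IC50 values come from mobility-shift measurement of phosphorylated versus unphosphorylated 5-FAM peptide substrate after EDTA quench. Beforehand, compound and 1.25 nmol/L E. coli-expressed GST–human ERK2 stood 15 min at room temperature (pH 7.5), then 1 mmol/L ATP and 4.25 μmol/L substrate (final) were added for 120 min at 25 °C.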

T1 sequence (P42336 whole entry): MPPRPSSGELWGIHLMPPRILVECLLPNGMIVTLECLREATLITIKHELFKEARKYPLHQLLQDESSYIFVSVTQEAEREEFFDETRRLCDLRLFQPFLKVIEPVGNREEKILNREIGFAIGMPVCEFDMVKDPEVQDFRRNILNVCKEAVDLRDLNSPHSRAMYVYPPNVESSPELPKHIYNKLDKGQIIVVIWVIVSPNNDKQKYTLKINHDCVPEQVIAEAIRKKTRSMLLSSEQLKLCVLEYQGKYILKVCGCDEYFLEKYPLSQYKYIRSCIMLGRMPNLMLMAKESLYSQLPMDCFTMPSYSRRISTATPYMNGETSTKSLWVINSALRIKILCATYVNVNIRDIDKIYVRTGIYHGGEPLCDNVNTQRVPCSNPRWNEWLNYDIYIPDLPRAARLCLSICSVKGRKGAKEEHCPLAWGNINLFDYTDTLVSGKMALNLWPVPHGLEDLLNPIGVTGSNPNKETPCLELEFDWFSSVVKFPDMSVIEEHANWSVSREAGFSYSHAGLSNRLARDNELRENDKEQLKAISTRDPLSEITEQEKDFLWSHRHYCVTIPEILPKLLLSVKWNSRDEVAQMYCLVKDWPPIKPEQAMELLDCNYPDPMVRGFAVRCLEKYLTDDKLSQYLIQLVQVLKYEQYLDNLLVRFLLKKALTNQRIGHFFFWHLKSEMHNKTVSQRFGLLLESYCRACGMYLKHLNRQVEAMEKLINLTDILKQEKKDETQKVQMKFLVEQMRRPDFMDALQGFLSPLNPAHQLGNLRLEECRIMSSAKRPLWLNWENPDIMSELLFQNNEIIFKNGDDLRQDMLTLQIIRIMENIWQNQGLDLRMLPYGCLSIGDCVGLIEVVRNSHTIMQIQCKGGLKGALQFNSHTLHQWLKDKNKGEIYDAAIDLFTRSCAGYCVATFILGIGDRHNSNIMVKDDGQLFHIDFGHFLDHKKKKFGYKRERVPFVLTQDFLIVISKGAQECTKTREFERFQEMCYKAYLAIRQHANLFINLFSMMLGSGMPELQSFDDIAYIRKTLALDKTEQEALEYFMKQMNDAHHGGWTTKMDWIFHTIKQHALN
T1 sequence (P27986 whole entry partner): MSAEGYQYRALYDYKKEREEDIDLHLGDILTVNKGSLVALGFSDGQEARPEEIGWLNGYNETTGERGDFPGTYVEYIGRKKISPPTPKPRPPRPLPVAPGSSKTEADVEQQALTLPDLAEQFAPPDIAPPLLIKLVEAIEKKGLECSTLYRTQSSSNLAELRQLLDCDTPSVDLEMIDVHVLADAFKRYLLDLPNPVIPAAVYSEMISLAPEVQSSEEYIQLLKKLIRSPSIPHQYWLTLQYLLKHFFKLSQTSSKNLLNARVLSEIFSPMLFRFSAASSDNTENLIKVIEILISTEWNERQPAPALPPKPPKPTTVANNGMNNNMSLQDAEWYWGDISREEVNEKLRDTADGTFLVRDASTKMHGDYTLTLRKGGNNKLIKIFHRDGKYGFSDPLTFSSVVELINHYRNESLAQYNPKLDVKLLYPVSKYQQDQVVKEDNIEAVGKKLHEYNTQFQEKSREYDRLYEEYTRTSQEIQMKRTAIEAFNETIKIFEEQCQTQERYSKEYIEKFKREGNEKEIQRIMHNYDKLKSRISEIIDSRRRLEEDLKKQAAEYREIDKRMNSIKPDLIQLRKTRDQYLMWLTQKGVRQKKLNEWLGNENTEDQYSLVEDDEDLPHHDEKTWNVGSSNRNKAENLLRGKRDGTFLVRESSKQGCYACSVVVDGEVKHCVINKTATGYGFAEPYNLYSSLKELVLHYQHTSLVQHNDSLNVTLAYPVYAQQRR

`CC(C)c1cnnc(Nc2ccc3ncc(-c4cn(C)nc4COC4CNC4)cc3n2)c1` [Example 0822, 7-(3-((Azetidin-3-yloxy)methyl)-1-methyl-1H-pyrazol-4-yl)-N-(5-isopropylpyridazin-3-yl)-1,5-naphthyridine-2-amine]: the IC50 in experiment [1] and in experiment [2] was less than 1000 nM throughout.

Regarding `CC(C)c1cnnc(Nc2ccc3ncc(-c4cn(C)nc4COC4CN(C)C4)cc3n2)c1` [Example 0823, N-(5-isopropylpyridazin-3-yl)-7-(1-methyl-3-(((1-methylazetidin-3-yl)oxy)methyl)-1H-pyrazol-4-yl)-1,5-naphthyridine-2-amine], the IC50 in experiment [1] and in experiment [2] was less than 1000 nM throughout.

Consider `CC(C)c1cnnc(Nc2ccc3ncc(-c4cn(C)nc4Cc4cccnc4)cc3n2)c1` [Example 0824, N-(5-isopropylpyridazin-3-yl)-7-(1-methyl-3-(pyridin-3-ylmethyl)-1H-pyrazol-4-yl)-1,5-naphthyridine-2-amine], for which the IC50 in experiment [1] and in experiment [2] was less than 1000 nM each time.

For `CC(C)c1cnnc(Nc2ccc3ncc(-c4cn(C)nc4NC4CNC4)cc3n2)c1` [Example 0826], the IC50 in experiment [1] and in experiment [2] was less than 1000 nM in each case.

`CC(C)c1cnnc(Nc2ccc3ncc(-c4cn(C)nc4NC4CN(C)C4)cc3n2)c1` [Example 0827, N-(5-isopropylpyridazin-3-yl)-7-(1-methyl-3-((1-methylazetidin-3-yl)amino)-1H-pyrazol-4-yl)-1,5-naphthyridine-2-amine]: the IC50 in experiment [1] and in experiment [2] was less than 1000 nM in each case.

Turning to `CC(C)c1cnnc(Nc2ccc3ncc(-c4cn(C)nc4Cc4ccccc4)cc3n2)c1` [Example 0828], the IC50 in experiment [1] and in experiment [2] was less than 1000 nM each time.

Consider `CC(C)c1cnnc(Nc2ccc3ncc(-c4cn(C)nc4Nc4ccccc4)cc3n2)c1` [Example 0829], for which the IC50 in experiment [1] and in experiment [2] was less than 1000 nM throughout.

With `CC(C)c1cnnc(Nc2ccc3ncc(-c4cn(C)nc4NC4CCCCC4)cc3n2)c1` [Example 0830, 7-(3-(cyclohexylamino)-1-methyl-1H-pyrazol-4-yl)-N-(5-isopropylpyridazin-3-yl)-1,5-naphthyridine-2-amine], the IC50 in experiment [1] and in experiment [2] was less than 1000 nM each time.

For `CC(C)c1cnnc(Nc2ccc3ncc(-c4cn(C)nc4NC4COC4)cc3n2)c1` [Example 0831], the IC50 in experiment [1] and in experiment [2] was less than 1000 nM each time.

Consider `CC(C)c1cnnc(Nc2ccc3ncc(-c4cn(C)nc4NC4CCOCC4)cc3n2)c1` [Example 0832], for which the IC50 in experiment [1] and in experiment [2] was less than 1000 nM in each case.

`CC(C)c1cnnc(Nc2ccc3ncc(-c4cn(C)nc4NCc4cccnc4)cc3n2)c1` [Example 0833]: the IC50 in experiment [1] and in experiment [2] was less than 1000 nM each time.

As for `CC(C)c1cnnc(Nc2ccc3ncc(-c4cn(C)nc4NCc4ccccn4)cc3n2)c1` [Example 0834], the IC50 in experiment [1] and in experiment [2] was less than 1000 nM in each case.

With `CC(C)c1cnnc(Nc2ccc3ncc(-c4cn(C)nc4NCc4ccncc4)cc3n2)c1` [Example 0835], the IC50 in experiment [1] and in experiment [2] was less than 1000 nM each time.

Regarding `CC(C)c1cnnc(Nc2ccc3ncc(-c4cn(C)nc4NCc4cnn(C)c4)cc3n2)c1` [Example 0836], the IC50 in experiment [1] was less than 1000 nM; in experiment [2], 1000 to 10000 nM.

`CC(C)c1cnnc(Nc2ccc3ncc(-c4cc(-c5ccccn5)nn4C)cc3n2)c1` [Example 0837, N-(5-isopropylpyridazin-3-yl)-7-(1-methyl-3-(pyridin-2-yl)-1H-pyrazol-5-yl)-1,5-naphthyridine-2-amine]: the IC50 is 1000 to 10000 nM in experiment [1] and less than 1000 nM in experiment [2].

`CC(C)c1cnnc(Nc2ccc3ncc(-c4cn(C)nc4-c4ccccn4)cc3n2)c1` [Example 0838, N-(5-isopropylpyridazin-3-yl)-7-(1-methyl-3-(pyridin-2-yl)-1H-pyrazol-4-yl)-1,5-naphthyridine-2-amine]: the IC50 in experiment [1] and in experiment [2] was less than 1000 nM in each case.

Turning to `Cc1ccc(S(=O)(=O)Nc2cnc3ccc(Nc4cc(C(C)C)cnn4)nc3c2)cc1` [Example 0839, N-(6-((5-isopropylpyridazin-3-yl)amino)-1,5-naphthyridin-3-yl)-4-methylbenzene sulfonamide], the values for the IC50 in experiment [1] and in experiment [2] were 10000 to 50000 nM and 1000 to 10000 nM, respectively.

For `CC(C)c1cnnc(Nc2ccc3ncc(NS(C)(=O)=O)cc3n2)c1` [Example 0840, N-(6-((5-isopropylpyridazin-3-yl)amino)-1,5-naphthyridin-3-yl)methane sulfonamide], the IC50 in experiment [1] and in experiment [2] was 1000 to 10000 nM in each case.

For the molecule `CC(C)c1cnnc(Nc2ccc3ncc(N(C)S(C)(=O)=O)cc3n2)c1` [Example 0841, N-(6-((5-isopropylpyridazin-3-yl)amino)-1,5-naphthyridin-3-yl)-N-methylmethane sulfonamide], the IC50 in experiment [1] and in experiment [2] was 1000 to 10000 nM each time.

Turning to `CC(C)c1cnnc(Nc2ccc3ncc(N4CCN(C)CC4)cc3n2)c1` [Example 0842, N-(5-isopropylpyridazin-3-yl)-7-(4-methylpiperazin-1-yl)-1,5-naphthyridine-2-amine], the IC50 in experiment [1] and in experiment [2] was 1000 to 10000 nM throughout.

With `CC(C)c1cnnc(Nc2ccc3ncc(-c4cn(C)nc4-c4ccnnc4)cc3n2)c1` [Example 0843, N-(5-isopropylpyridazin-3-yl)-7-(1-methyl-3-(pyridazin-4-yl)-1H-pyrazol-4-yl)-1,5-naphthyridine-2-amine], the IC50 in experiment [1] and in experiment [2] was less than 1000 nM each time.

Consider `CC(C)c1cnnc(Nc2ccc3ncc(-c4cn(C)nc4N4CCOCC4)cc3n2)c1` [Example 0844], for which the IC50 in experiment [1] and in experiment [2] was less than 1000 nM each time.

Take `CC(C)c1cnnc(Nc2ccc3ncc(N4CCCCC4)cc3n2)c1` [Example 0845, N-(5-isopropylpyridazin-3-yl)-7-(piperidin-1-yl)-1,5-naphthyridine-2-amine]: the figures for the IC50 in experiment [1] and in experiment [2] were 1000 to 10000 nM and less than 1000 nM, respectively.

Consider `CC(C)c1cnnc(Nc2ccc3ncc(N4CCCC4)cc3n2)c1` [Example 0846, N-(5-isopropylpyridazin-3-yl)-7-(pyrrolidin-1-yl)-1,5-naphthyridine-2-amine], for which the IC50 in experiment [1] is 1000 to 10000 nM; in experiment [2], less than 1000 nM.

Turning to `CC(C)c1cnnc(Nc2ccc3ncc(N4CCC4)cc3n2)c1` [Example 0847, 7-(Azetidin-1-yl)-N-(5-isopropylpyridazin-3-yl)-1,5-naphthyridine-2-amine], the values for the IC50 in experiment [1] and in experiment [2] were 1000 to 10000 nM and less than 1000 nM, respectively.

As to `Cc1nn(C)cc1-c1cnc2ccc(Nc3cc(C(C)C)no3)nc2c1` [Example 0848, N-(7-(1,3-dimethyl-1H-pyrazol-4-yl)-1,5-naphthyridin-2-yl)-3-isopropylisoxazole-5-amine], the IC50 in experiment [1] and in experiment [2] was 1000 to 10000 nM each time.

Take `Cc1nc2ccc(Nc3cc(C(C)C)cnn3)nc2cc1-c1cnn(C)c1` [Example 0849, N-(5-isopropylpyridazin-3-yl)-6-methyl-7-(1-methyl-1H-pyrazol-4-yl)-1,5-naphthyridine-2-amine]: the IC50 is 1000 to 10000 nM in experiment [1] and less than 1000 nM in experiment [2].

As for `Cc1c(-c2cnn(C)c2)cnc2ccc(Nc3cc(C(C)C)cnn3)nc12` [Example 0850, N-(5-isopropylpyridazin-3-yl)-8-methyl-7-(1-methyl-1H-pyrazol-4-yl)-1,5-naphthyridine-2-amine], the IC50 in experiment [1] and in experiment [2] was less than 1000 nM in each case.

`Cc1nc2ccc(Nc3cc(C(C)C)cnn3)nc2cc1-c1cn(C)nc1C` [Example 0851, 7-(1,3-Dimethyl-1H-pyrazol-4-yl)-N-(5-isopropylpyridazin-3-yl)-6-methyl-1,5-naphthyridine-2-amine]: the IC50 in experiment [1] is 1000 to 10000 nM; in experiment [2] it was less than 1000 nM.

Consider `Cc1nn(C)cc1-c1cnc2ccc(Nc3cc(C(C)C)cnn3)nc2c1C` [Example 0852, 7-(1,3-Dimethyl-1H-pyrazol-4-yl)-N-(5-isopropylpyridazin-3-yl)-8-methyl-1,5-naphthyridine-2-amine], for which the IC50 in experiment [1] and in experiment [2] was less than 1000 nM throughout.

In the case of `COC1CN(c2cnc3ccc(Nc4cc(C(C)C)cnn4)nc3c2)C1` [Example 0853], the IC50 in experiment [1] and in experiment [2] was less than 1000 nM each time.

Take `CC(C)c1cnnc(Nc2ccc3ncc(N4CC(F)(F)C4)cc3n2)c1` [Example 0854]: the IC50 in experiment [1] and in experiment [2] was less than 1000 nM each time.

`CC(C)c1cnnc(Nc2ccc3ncc(N4CC5(COC5)C4)cc3n2)c1` [Example 0855]: the IC50 in experiment [1] and in experiment [2] was less than 1000 nM in each case.

In the case of `CC(C)c1cnnc(Nc2ccc3ncc(N4CC5(CCO5)C4)cc3n2)c1` [Example 0856], the IC50 was 1000 to 10000 nM in experiment [1] and less than 1000 nM in experiment [2].

Take `CC(C)c1cnnc(Nc2ccc3ncc(N4CCS(=O)(=O)CC4)cc3n2)c1` [Example 0857]: the IC50 in experiment [1] is 1000 to 10000 nM; in experiment [2], less than 1000 nM.

Regarding `CC(C)c1cnnc(Nc2ccc3ncc(N4CCC(F)(F)CC4)cc3n2)c1` [Example 0858], the IC50 in experiment [1] is 1000 to 10000 nM; in experiment [2], less than 1000 nM.

In the case of `COC1(C)CN(c2cnc3ccc(Nc4cc(C(C)C)cnn4)nc3c2)C1` [Example 0859], the results for the IC50 in experiment [1] and in experiment [2] were 1000 to 10000 nM and less than 1000 nM, respectively.

Consider `CC(C)c1cnnc(Nc2ccc3ncc(N4CC(Oc5ccccc5)C4)cc3n2)c1` [Example 0860], for which the IC50 in experiment [1] and in experiment [2] was 1000 to 10000 nM in each case.

Values taken from patent US9783536B2, “Nitrogen-containing heterocyclic compound or salt thereof” (FUJIFILM Corporation, priority 2013, dated 2017).
